Source: ChEMBL document CHEMBL3297733, “Discovery and optimization of pyrrolo[1,2-a]pyrazinones leads to novel and selective inhibitors of PIM kinases” (Bioorg Med Chem, 2013)

What was measured:
[1] = Cytotoxicity against mouse BA/F3 cells overexpressing PIM1 after 72 hrs by CellTitre-Glo assay; format: functional, cell-based; conditions: BaF3, 72 h
[2] = target: Serine/threonine-protein kinase 26 (Homo sapiens, UniProt Q9P289); experiment: Inhibition of MST4 (unknown origin)
[3] = target: Serine/threonine-protein kinase PAK 4 (Homo sapiens, UniProt O96013); experiment: Inhibition of PAK4 (unknown origin)
[4] = Inhibition of PKA-alpha (unknown origin); parameters: species or system Homo sapiens
Focal adhesion kinase 1 = Focal adhesion kinase 1 (Homo sapiens, UniProt Q05397); experiment: Inhibition of FAK (unknown origin)
[5] = target: Tyrosine-protein kinase ABL1 (Homo sapiens, UniProt P00519); experiment: Inhibition of Bcr-ABL (unknown origin)
Aurora kinase A = Aurora kinase A (Homo sapiens, UniProt O14965); experiment: Inhibition of aurora kinase 1 (unknown origin)
LNCaP = experiment: Cytotoxicity against human LNCAP cells after 72 hrs by CellTitre-Glo assay; format: functional, cell-based
[6] = target: Maternal embryonic leucine zipper kinase (Homo sapiens, UniProt Q14680); experiment: Inhibition of MELK (unknown origin)
[7] = target: Tyrosine-protein kinase JAK2 (Homo sapiens, UniProt O60674); experiment: Inhibition of JAK2 (unknown origin)
Sequence of Tyrosine-protein kinase JAK2 (O60674 whole entry): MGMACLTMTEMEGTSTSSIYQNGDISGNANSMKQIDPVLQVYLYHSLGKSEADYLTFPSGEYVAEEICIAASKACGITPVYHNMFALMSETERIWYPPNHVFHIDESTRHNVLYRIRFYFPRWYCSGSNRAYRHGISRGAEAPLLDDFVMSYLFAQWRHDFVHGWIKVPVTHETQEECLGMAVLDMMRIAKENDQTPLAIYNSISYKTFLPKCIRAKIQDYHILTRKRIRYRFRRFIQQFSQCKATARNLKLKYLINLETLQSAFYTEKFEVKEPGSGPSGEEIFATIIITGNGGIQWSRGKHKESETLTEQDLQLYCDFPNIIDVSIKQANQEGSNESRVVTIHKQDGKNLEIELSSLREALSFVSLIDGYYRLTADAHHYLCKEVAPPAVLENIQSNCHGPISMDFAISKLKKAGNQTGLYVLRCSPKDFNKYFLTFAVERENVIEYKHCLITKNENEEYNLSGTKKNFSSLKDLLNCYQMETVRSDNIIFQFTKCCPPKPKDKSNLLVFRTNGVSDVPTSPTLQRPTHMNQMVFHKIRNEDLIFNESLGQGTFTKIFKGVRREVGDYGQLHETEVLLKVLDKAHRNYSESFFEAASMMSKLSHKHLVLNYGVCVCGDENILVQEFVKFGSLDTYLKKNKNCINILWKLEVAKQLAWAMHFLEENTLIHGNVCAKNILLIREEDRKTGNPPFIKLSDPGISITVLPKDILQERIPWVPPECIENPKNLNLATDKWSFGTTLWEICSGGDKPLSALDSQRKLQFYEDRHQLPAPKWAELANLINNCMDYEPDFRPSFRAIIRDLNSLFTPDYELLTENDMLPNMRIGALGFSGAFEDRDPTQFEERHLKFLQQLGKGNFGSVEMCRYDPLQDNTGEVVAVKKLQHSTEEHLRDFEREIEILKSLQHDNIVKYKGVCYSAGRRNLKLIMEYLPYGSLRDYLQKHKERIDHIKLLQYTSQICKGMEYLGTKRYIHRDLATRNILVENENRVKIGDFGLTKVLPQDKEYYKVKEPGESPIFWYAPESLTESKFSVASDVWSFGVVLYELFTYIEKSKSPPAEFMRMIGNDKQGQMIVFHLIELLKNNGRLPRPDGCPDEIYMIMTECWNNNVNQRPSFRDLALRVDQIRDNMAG

[8] = target: High affinity nerve growth factor receptor (Homo sapiens, UniProt P04629); experiment: Inhibition of TRKA (unknown origin)
[9] = target: Epidermal growth factor receptor (Homo sapiens, UniProt P00533); experiment: Inhibition of EGFR1 (unknown origin)
[10] = target: Eukaryotic elongation factor 2 kinase (Homo sapiens, UniProt O00418); experiment: Inhibition of EEF2K (unknown origin)
[11] = target: Proto-oncogene tyrosine-protein kinase ROS (Homo sapiens, UniProt P08922); experiment: Inhibition of ROS1 (unknown origin)
Sequence of Proto-oncogene tyrosine-protein kinase ROS (P08922 whole entry): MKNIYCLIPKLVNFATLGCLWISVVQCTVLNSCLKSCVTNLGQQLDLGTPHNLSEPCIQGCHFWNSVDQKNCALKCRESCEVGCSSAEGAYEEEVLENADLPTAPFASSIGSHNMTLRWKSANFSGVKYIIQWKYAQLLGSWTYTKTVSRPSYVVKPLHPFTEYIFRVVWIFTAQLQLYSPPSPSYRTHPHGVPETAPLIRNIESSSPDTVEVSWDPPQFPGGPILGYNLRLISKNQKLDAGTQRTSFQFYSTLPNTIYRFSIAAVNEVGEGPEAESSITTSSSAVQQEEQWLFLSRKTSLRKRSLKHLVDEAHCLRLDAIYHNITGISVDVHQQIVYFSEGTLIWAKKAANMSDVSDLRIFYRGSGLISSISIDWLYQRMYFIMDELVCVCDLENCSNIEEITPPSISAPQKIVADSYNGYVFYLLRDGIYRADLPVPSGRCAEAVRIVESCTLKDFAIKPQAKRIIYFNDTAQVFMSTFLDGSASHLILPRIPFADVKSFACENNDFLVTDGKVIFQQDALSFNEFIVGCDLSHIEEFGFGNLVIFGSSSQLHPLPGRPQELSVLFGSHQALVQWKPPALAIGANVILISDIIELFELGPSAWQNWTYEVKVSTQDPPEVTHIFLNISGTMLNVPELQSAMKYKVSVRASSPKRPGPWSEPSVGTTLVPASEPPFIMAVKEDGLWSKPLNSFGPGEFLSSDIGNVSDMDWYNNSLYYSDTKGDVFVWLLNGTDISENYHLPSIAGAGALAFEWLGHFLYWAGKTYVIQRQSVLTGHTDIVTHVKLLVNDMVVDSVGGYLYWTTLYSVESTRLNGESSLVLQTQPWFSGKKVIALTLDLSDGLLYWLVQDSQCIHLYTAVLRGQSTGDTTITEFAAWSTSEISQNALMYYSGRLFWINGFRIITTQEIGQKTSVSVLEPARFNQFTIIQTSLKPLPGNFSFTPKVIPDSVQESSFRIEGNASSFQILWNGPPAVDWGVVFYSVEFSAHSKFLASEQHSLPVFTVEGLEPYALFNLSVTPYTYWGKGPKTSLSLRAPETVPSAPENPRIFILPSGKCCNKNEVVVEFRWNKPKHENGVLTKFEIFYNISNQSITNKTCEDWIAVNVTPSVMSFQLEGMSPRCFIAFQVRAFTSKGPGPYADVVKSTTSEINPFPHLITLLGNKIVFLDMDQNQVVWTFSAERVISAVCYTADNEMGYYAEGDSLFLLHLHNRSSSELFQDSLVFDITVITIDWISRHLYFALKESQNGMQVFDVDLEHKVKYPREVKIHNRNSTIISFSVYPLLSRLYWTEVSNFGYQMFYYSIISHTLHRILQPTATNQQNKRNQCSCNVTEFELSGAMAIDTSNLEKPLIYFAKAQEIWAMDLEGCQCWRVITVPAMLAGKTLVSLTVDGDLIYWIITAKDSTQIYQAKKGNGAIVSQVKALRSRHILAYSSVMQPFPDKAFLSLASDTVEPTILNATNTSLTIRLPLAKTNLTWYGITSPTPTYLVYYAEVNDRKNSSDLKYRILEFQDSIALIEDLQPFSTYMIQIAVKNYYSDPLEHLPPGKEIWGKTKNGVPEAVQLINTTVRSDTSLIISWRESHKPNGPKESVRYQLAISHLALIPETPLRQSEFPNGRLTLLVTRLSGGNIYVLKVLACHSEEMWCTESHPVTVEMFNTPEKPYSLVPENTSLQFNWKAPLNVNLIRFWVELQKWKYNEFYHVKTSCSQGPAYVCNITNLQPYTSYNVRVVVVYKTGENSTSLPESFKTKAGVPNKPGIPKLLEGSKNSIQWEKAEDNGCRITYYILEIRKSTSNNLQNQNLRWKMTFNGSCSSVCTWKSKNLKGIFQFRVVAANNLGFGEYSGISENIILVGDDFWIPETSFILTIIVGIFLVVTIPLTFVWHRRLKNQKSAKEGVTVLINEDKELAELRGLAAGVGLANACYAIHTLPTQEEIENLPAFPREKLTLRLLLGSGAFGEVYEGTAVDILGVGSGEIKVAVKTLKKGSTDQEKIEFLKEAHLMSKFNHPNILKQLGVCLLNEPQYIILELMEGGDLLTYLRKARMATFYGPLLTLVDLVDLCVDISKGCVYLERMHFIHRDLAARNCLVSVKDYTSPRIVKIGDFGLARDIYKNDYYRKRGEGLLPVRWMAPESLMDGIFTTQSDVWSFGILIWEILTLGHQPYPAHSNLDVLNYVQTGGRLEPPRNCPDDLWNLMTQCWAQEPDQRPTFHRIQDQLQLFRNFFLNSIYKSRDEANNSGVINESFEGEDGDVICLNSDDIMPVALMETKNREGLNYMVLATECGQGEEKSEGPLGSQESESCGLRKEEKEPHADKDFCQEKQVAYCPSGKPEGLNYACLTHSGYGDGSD

[12] = Half life in BALB/c mouse at 8.2 mg/kg, po; format: ADME, organism-based; parameters: dose 8.2 mg/kg, route oral; conditions: in vivo
[13] = target: Serine/threonine-protein kinase PLK1 (Homo sapiens, UniProt P53350); experiment: Inhibition of PLK1 (unknown origin)
[14] = target: Tyrosine-protein kinase JAK3 (Homo sapiens, UniProt P52333); experiment: Inhibition of JAK3 (unknown origin)
[15] = target: Platelet-derived growth factor receptor (Homo sapiens, UniProt P09619+P16234); experiment: Inhibition of PDGFR (unknown origin); format: protein-complex assay
[16] = target: Mitogen-activated protein kinase 1 (Homo sapiens, UniProt P28482); experiment: Inhibition of ERK2 (unknown origin)
[17] = Inhibition of CDK2/CYCA (unknown origin); parameters: species or system Homo sapiens
[18] = Intrinsic clearance in mouse hepatocytes; format: ADME, cell-based, Hepatocyte; conditions: read-out: CLH
[19] = Cytotoxicity against mouse BA/F3 cells after 72 hrs by CellTitre-Glo assay; format: cell-based; conditions: BaF3, 72 h
[20] = Intrinsic clearance in rat hepatocytes; format: ADME, cell-based, Hepatocyte; conditions: read-out: CLH
[21] = AUC in BALB/c mouse at 8.2 mg/kg, iv; format: ADME, organism-based; parameters: dose 8.2 mg/kg, route intravenous; conditions: plasma
[22] = target: MAP kinase-interacting serine/threonine-protein kinase 2 (Homo sapiens, UniProt Q9HBH9); experiment: Inhibition of MNK2 (unknown origin)
[23] = target: Serine/threonine-protein kinase pim-1 (Mus musculus) (UniProt P06803); experiment: Inhibition of PIM1 in mouse BA/F3 cells assessed as c-Myc degradation after 24 hrs by Western blotting analysis; format: cell-based; conditions: BaF3
[24] = target: Mast/stem cell growth factor receptor Kit (Homo sapiens, UniProt P10721); experiment: Inhibition of KIT (unknown origin)
[25] = target: Tyrosine-protein kinase JAK1 (Homo sapiens, UniProt P23458); experiment: Inhibition of JAK1 (unknown origin)
Sequence of Tyrosine-protein kinase JAK1 (P23458 whole entry): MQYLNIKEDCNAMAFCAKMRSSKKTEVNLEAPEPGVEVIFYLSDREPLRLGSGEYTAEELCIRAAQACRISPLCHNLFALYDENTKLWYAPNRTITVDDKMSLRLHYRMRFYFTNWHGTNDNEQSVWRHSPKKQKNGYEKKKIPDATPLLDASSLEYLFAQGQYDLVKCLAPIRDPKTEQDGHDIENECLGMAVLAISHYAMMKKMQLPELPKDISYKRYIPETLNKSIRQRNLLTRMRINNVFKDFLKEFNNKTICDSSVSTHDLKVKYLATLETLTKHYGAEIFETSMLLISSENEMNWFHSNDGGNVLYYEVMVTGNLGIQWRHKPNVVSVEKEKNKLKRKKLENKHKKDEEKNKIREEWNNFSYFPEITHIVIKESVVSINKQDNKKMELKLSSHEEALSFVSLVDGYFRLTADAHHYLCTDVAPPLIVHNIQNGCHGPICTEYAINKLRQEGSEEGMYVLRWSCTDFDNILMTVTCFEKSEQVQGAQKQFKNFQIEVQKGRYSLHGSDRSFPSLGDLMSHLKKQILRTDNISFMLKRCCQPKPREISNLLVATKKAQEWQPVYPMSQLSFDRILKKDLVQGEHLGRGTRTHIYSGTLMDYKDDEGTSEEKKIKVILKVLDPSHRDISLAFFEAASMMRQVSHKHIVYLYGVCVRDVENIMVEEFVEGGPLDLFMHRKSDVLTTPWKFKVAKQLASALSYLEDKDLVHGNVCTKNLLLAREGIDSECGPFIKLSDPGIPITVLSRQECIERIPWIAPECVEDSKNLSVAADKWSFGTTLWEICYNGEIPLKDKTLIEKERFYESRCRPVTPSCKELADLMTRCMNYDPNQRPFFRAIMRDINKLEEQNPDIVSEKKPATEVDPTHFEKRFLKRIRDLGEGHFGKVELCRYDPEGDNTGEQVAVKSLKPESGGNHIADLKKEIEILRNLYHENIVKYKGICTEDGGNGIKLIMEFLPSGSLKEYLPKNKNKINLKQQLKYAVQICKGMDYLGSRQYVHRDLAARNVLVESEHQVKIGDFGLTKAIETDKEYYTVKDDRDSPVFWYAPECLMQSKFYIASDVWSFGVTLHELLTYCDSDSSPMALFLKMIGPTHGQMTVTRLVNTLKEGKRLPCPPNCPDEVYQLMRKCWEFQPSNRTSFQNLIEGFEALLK

Insulin receptor = Insulin receptor (Homo sapiens, UniProt P06213); experiment: Inhibition of IR (unknown origin)
Ephrin type-A receptor 2 = Ephrin type-A receptor 2 (Homo sapiens, UniProt P29317); experiment: Inhibition of EphA2 (unknown origin)
[26] = target: Serine/threonine-protein kinase haspin (Homo sapiens, UniProt Q8TF76); experiment: Inhibition of haspin (unknown origin)
[27] = Cytotoxicity against human NCI-H929 cells after 72 hrs by CellTitre-Glo assay; format: functional, cell-based; conditions: NCI-H929, 72 h
[28] = target: Hepatocyte growth factor receptor (Homo sapiens, UniProt P08581); experiment: Inhibition of c-MET (unknown origin)
[29] = target: MAP kinase-activated protein kinase 2 (Homo sapiens, UniProt P49137); experiment: Inhibition of MAPKAPK2 (unknown origin)
Cytochrome P450 2D6 = Cytochrome P450 2D6 (Homo sapiens, UniProt P10635); experiment: Inhibition of CYP2D6 (unknown origin); format: ADME

Sequence of Serine/threonine-protein kinase 26 (Q9P289 whole entry): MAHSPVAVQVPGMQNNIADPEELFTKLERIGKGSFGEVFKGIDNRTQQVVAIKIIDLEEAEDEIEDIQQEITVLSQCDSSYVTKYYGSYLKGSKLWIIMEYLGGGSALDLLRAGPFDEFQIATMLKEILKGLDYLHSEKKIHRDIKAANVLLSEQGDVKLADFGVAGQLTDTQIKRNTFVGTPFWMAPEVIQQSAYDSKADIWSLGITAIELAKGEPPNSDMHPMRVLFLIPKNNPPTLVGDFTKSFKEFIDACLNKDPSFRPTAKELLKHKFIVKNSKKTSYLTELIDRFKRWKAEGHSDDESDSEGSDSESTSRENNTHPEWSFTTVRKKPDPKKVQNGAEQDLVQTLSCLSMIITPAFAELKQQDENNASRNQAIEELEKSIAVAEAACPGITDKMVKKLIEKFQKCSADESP

IC50 [2]: > 10 µM
IC50 [3]: > 10 µM
IC50 [4]: > 10 µM
IC50 (Focal adhesion kinase 1): > 10 µM
IC50 [5]: > 10 µM
IC50 (Aurora kinase A): > 10 µM
IC50 [6]: > 10 µM
IC50 [7]: > 10 µM
IC50 [8]: > 10 µM
IC50 [9]: > 10 µM
IC50 [10]: > 10 µM
IC50 [11]: > 10 µM
half-life [12]: 75 min
IC50 [13]: > 10 µM
IC50 [14]: > 10 µM
IC50 [15]: > 10 µM
IC50 [16]: > 10 µM
IC50 [17]: > 10 µM
CLint scaled [18]: 63 mL/min/kg
CLint scaled [20]: 21 mL/min/kg
AUC [21]: 8.75 µM·h
IC50 [22]: > 10 µM
inhibition [23]: Dose-dependent effect
IC50 [24]: > 10 µM
IC50 [25]: > 10 µM
IC50 (Insulin receptor): > 10 µM
IC50 (Ephrin type-A receptor 2): > 10 µM
IC50 [26]: > 10 µM
IC50 [28]: > 10 µM
IC50 [29]: > 10 µM
IC50 (Cytochrome P450 2D6): > 10 µM
Structure (SMILES): CN1CCN(C[C@@H](NC(=O)C[C@H]2CNC(=O)c3cc(-c4cccc(Cl)c4)cn32)C2CCCCC2)CC1
IC50 [1]: 125 nM
IC50 (LNCaP): 3.31 µM
IC50 [19]: > 10 µM
IC50 [27]: 5.93 µM
